Data set [1] is described as follows: Clinical comparative pharmacokinetic study, 3-period cross-over, single oral doses, plasma samples. The data set is classed as in vivo, human. Here is the method:
A clinical comparative pharmacokinetic study was performed to understand the pharmacokinetic profile of metopimazine mesylate Crystal Form A in comparison to the free base of metopimazine. This study was as a 3-period, cross-over design with 3 administrations of single doses: oral formulation of metopimazine mesylate Crystal Form A fasting, oral formulation of metopimazine mesylate Crystal Form A after a high-fat breakfast, and oral formulation of metopimazine free base fasting, with a wash-out period of 48 hours between each administration. Fifteen subjects were enrolled and received each of the 3 treatment. Plasma samples from each subject were analyzed for various pharmacokinetic parameters. Mixed model repeated measures (MMRM) analysis was performed on each sample.
The second objective of this study was to compare the pharmacokinetics of metopimazine mesylate Crystal Form A administered as an oral administration of a single dose of 15 mg orally in 15 human subjects either in a fasted state or after a high fat breakfast. Plasma samples from each subject were analyzed for various pharmacokinetic parameters. […] Both Cmax and AUC are well within the 90% confidence interval.

The conditions of data set [2]: before and after a high fat breakfast; cited from earlier work.
Where [3] appears, read: 15 mg single oral dose, n = 15, fasted.
Where [4] appears, read: 90% confidence interval of ratio fasted vs fed.
The mark [5] stands for this setting: 90% confidence interval of ratio fasted vs fed, marked bioequivalence.
The mark [6] stands for this setting: single dose of 15 mg orally, 15 human subjects.

Data on two molecules can be found in patent publication US20230142366A1, “NOVEL POLYMORPHIC FORMS OF METOPIMAZINE” (Neurogastrx, Inc., priority 2020, published 2023).

Each structure is given as a SMILES string. Structures can show the parent of a compound that is named as a salt. Marks after values point to notes of the source that are not given here.

Regarding `CS(=O)(=O)c1ccc2c(c1)N(CCCN1CCC(C(N)=O)CC1)c1ccccc1S2` [Metopimazine free base, 1-(3-(2-(methylsulfonyl)-10H-phenothiazin-10-yl)propyl)piperidine-4-carboxamide, reference compound], in data set [1] (setting [3]), the “Tmax CV %” value turned out to be 77.33%, the “Tmax Max” value is listed as 4.00 h, the “Tmax Median” value came out at 1.00 h and the “Tmax Min” value is 0.50 h. In addition, the “Tmax Mean” value in data set [1] (15 mg single oral dose, n = 15, fasted, plasma) worked out at 1.27 h. Also, in data set [2], the “Reduction in AUC (food effect)” value is 23% and the “Reduction in Cmax (food effect)” value was 58%.

With `CS(=O)(=O)c1ccc2c(c1)N(CCCN1CCC(C(N)=O)CC1)c1ccccc1S2` [Metopimazine mesylate Crystal Form A, 1-(3-(2-(methylsulfonyl)-10H-phenothiazin-10-yl)propyl)piperidine-4-carboxamide methanesulfonic acid], the “Variance of Tmax values compared with metopimazine free base” value in data set [1] (15 mg oral, fasted, MMRM analysis) is recorded as “statistically significantly lower variance”. In addition, in data set [1] (15 mg oral, fed vs fasted), the “Change in AUC when administered with food” value is on record as “no notable change in AUC” and the “Reduction in Cmax when administered with food” value was “approximately 15%”. In addition, in data set [1] (setting [3]), the “Tmax CV %” value came to 34.25%, the “Tmax Max” value was 1.50 h and the “Tmax Min” value is recorded as 0.50 h. Moreover, in data set [1] (15 mg, n = 15), the “AUC0-inf GLSM Ratio fasted vs fed (%)” value is 93.63% and the “Cmax GLSM Ratio fasted vs fed (%)” value was found to be 84.07%. Moreover, in data set [1] (setting [4]), the “Cmax ratio Lower CI %” value was determined as 63.82% and the “Cmax ratio Upper CI %” value stood at 110.75%. In data set [1] (setting [5]), the “AUC0-inf ratio Lower CI %” value is given as 86.00* % and the “AUC0-inf ratio Upper CI %” value was 101.93* %. Moreover, in data set [1] (setting [6]), the “Geometric mean difference in AUC, high fat breakfast vs fasted” value is recorded as “not statistical difference” and the “Geometric mean difference in Cmax, high fat breakfast vs fasted” value is “slightly but significantly lower”.
